Like-named read-outs stand apart in the source and are kept apart here.

This experiment has as its target BTK (Homo sapiens, UniProt Q06187). Put plainly: biochemical.
Setting [1] is: read-out: BTK inhibition (%), 0.75 uM BTK, […] probe 3l, 15 min preincubation.

Sequence of BTK (Q06187 402-655 limits assumed): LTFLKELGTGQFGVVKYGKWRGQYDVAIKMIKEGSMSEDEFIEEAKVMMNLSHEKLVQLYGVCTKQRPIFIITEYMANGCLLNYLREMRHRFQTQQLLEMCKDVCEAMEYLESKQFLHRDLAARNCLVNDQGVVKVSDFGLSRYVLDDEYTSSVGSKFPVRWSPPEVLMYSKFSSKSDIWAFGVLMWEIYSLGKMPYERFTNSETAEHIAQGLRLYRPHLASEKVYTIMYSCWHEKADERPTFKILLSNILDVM

For orientation: inhibition means the change of the read-out against control, counted positive when it falls. In the case of `O=C1O[C@H]([C@@H](O)CO)C(O)=C1OP(=O)(O)O` [PCM-0215970], under setting [1], the inhibition at 10 µM is -4.3%.

For the molecule `CO[C@H]1C[C@H](O[C@H]2[C@H](C)O[C@@H](O[C@@H]3/C(C)=C/C[C@@H]4C[C@@H](C[C@]5(C=C[C@H](C)[C@@H](C6CCCCC6)O5)O4)OC(=O)[C@@H]4C=C(C)[C@@H](O)[C@H]5OC/C(=C\C=C\[C@@H]3C)[C@]54O)C[C@@H]2OC)O[C@@H](C)[C@@H]1O` [PCM-0215971], under setting [1], the inhibition at 10 µM turned out to be 44%.

Regarding `C=CC(=O)N1C[C@H](Nc2ncnc3[nH]ccc23)CC[C@@H]1C` [PCM-0215972], the inhibition at 10 µM under setting [1] was 95%.

With `CCCOC(=O)c1cc(O)c(O)c(O)c1` [PCM-0215973], the inhibition at 10 µM under setting [1] is 11.6%.

With `COc1ccc(C(=O)O)c(O)c1` [PCM-0215974], the inhibition at 10 µM under setting [1] came to 2.3%.

As to `COc1ccc(C(=O)O)cc1O` [PCM-0215975], the inhibition at 10 µM under setting [1] is -13.9%.

Regarding `Oc1ccc2ccccc2c1N=Nc1ccc(N=Nc2ccccc2)cc1` [PCM-0215976], under setting [1], the inhibition at 10 µM was -3.1%.

In the case of `CC(C)C1=CC2=CC[C@@H]3[C@](C)(CCC[C@@]3(C)C(=O)O)[C@H]2CC1` [PCM-0215977], the inhibition at 10 µM under setting [1] is -9.3%.

For `O=C(O)CCCCCCCC(O)C(O)CCCCCCO` (centres unmarked) [PCM-0215978], under setting [1], the inhibition at 10 µM was -13.1%.

Consider `CCCCCCCCCC[C@H](C(=O)O)[C@]1(C(=O)O)CCC(=O)O1` [PCM-0215979], for which the inhibition at 10 µM under setting [1] worked out at 17.8%.

For the molecule `OC1OC[C@@H](O)[C@@H](O)[C@@H]1O` (some centres unmarked) [PCM-0215980], the inhibition at 10 µM under setting [1] came to 10.8%.

With `Cc1cc(N2CCCCC2)nc2ccccc12` [PCM-0215982], under setting [1], the inhibition at 10 µM turned out to be 10%.

As to `C[C@H]1c2cccc(O)c2C(O)=C2C(=O)[C@]3(O)C(O)=C(C(N)=O)C(=O)[C@@H](N(C)C)[C@@H]3[C@@H](O)[C@@H]21` [PCM-0215985], the inhibition at 10 µM under setting [1] is -21.6%.

With `CCc1cc(Nc2nc(-c3ccc(-n4cnc(C)c4)c(F)c3)cs2)c(C)cc1C` [PCM-0215986], under setting [1], the inhibition at 10 µM is 10%.

For `CCCCCCCCCCCCCCCCOc1nc2ccc(C)cc2c(=O)o1` [PCM-0215987], under setting [1], the inhibition at 10 µM is -28.9%.

For the molecule `CCCc1cc(C)[nH]c(=O)c1CNC(=O)c1cc(-c2ccc(N3CCN(C)CC3)nc2)nc2c1cnn2C(C)C` [PCM-0215988], the inhibition at 10 µM under setting [1] was determined as 15.4%.

As for `CCOC(=O)N1CCC(CN(Cc2ccc(Cl)cc2)Cc2ccc([N+](=O)[O-])s2)C1` (centres unmarked) [PCM-0215989], the inhibition at 10 µM under setting [1] came to 20.1%.

For the molecule `O=c1cc(-c2ccc(O)c(O)c2O)oc2ccccc12` [PCM-0215990], the inhibition at 10 µM under setting [1] came out at 34%.

As for `CC1(N)CCN(c2cnc(-c3cccc(Cl)c3Cl)c(N)n2)CC1` [PCM-0215991], the inhibition at 10 µM under setting [1] came to 14.7%.

Regarding `C=C1CCN([C@H](C)[C@](O)(Cn2cncn2)c2ccc(F)cc2F)CC1` [PCM-0215992], the inhibition at 10 µM under setting [1] is -13.1%.

For `NNc1nnc(NN)c2ccccc12` [PCM-0215993], under setting [1], the inhibition at 10 µM is 9.3%.

As to `Nc1ccc(S(=O)(=O)Nc2cnc3ccccc3n2)cc1` [PCM-0215994], the inhibition at 10 µM under setting [1] was 8.5%.

On to `NCCNc1ccc(NCCN)c2c1C(=O)c1ccncc1C2=O` [PCM-0215996], for which the inhibition at 10 µM under setting [1] was 23.2%.

Turning to `Cc1cccc(C)c1NC(=O)c1cc(S(N)(=O)=O)c(Cl)cc1O` [PCM-0215998], under setting [1], the inhibition at 10 µM is 23.2%.

As for `CC(C)c1ccc(CO)cc1` [PCM-0216002], the inhibition at 10 µM under setting [1] was -6.2%.

Take `CC(=O)OC/C=C(\C)CCC=C(C)C` [PCM-0216003]: the inhibition at 10 µM under setting [1] stood at 2.3%.

In the case of `CO[C@@H]1[C@@H](OC)[C@H](C)[C@@](O)(CC(=O)O)O[C@H]1[C@H](C)[C@H]1O[C@@]2(CC[C@@](C)([C@H]3CC[C@@](C)([C@@H]4O[C@@H]([C@H]5O[C@](C)(O)[C@H](C)C[C@@H]5C)C[C@@H]4O[C@@H]4C[C@H](OC)[C@@H](OC)[C@H](C)O4)O3)O2)C[C@H](O)[C@H]1C` [PCM-0216004], the inhibition at 10 µM under setting [1] is -20.8%.

As to `CC[C@H]1OC(=O)C[C@@H](OC(C)=O)[C@H](C)[C@@H](O[C@@H]2O[C@H](C)[C@@H](O[C@H]3C[C@@](C)(O)[C@@H](OC(=O)CC(C)C)[C@H](C)O3)[C@H](N(C)C)[C@H]2O)[C@@H](CC=O)C[C@@H](C)C(=O)/C=C/C(C)=C/[C@@H]1CO[C@@H]1O[C@H](C)[C@@H](O)[C@@H](OC)[C@H]1OC` [PCM-0216006], the inhibition at 10 µM under setting [1] is -20.1%.

On to `Cc1c(C(=O)C=Cc2ccccc2)[n+](=O)c2ccccc2n1[O-]` [PCM-0216007], for which the inhibition at 10 µM under setting [1] was -6.9%.

For `N#CCC1(n2cc(-c3ncnc4[nH]ccc34)cn2)CN(C2CCN(C(=O)c3ccnc(C(F)(F)F)c3F)CC2)C1` [PCM-0216009], the inhibition at 10 µM under setting [1] amounted to 12.4%.

`CC/C(=C(/c1ccc(/C=C/C(=O)O)cc1)c1ccc2[nH]ncc2c1)c1ccc(F)cc1Cl` [PCM-0216010]: the inhibition at 10 µM under setting [1] is 81.1%.

As to `Cc1ccc(CN(CC(O)COc2cccc3[nH]ccc23)C(C)(C)C)cc1` (centres unmarked) [PCM-0216011], the inhibition at 10 µM under setting [1] came out at 6.9%.

For `O=C(Cn1nnc(-c2ccncc2)c1-c1ccccc1)Nc1ccc(-c2ccccc2)cn1` [PCM-0216012], the inhibition at 10 µM under setting [1] turned out to be 39.4%.

Take `CC(=O)Nc1ccc(OC(=O)c2ccccc2OC(C)=O)cc1` [PCM-0216013]: the inhibition at 10 µM under setting [1] was determined as 2.1%.

Consider `CC(=O)O[C@H]1CC(=O)OC(C)(C)[C@@H]2CC(=O)[C@]3(C)[C@H](CC[C@@]4(C)[C@H](c5ccoc5)OC(=O)[C@H]5O[C@]543)[C@@]12C` [PCM-0216014], for which the inhibition at 10 µM under setting [1] is 13.9%.

For `Cc1nc(Nc2ccc(F)cc2)nc(N2CCc3ccccc3C2C)c1C` (centres unmarked) [PCM-0216015], under setting [1], the inhibition at 10 µM stood at 79.3%.

Turning to `CN1CC(O)c2cc(N=NC(N)=O)c(O)cc21` (centres unmarked) [PCM-0216016], the inhibition at 10 µM under setting [1] is 28.3%.

`COCC(=O)Nc1cc(Sc2ccccc2)ccc1N=C(NC(=O)OC)NC(=O)OC` [PCM-0216017]: under setting [1], the inhibition at 10 µM was 11.6%.

Regarding `O=C(Nc1cccc(C2=NCCN2)c1)Nc1cccc(C2=NCCN2)c1` [PCM-0216019], the inhibition at 10 µM under setting [1] was -17%.

`CC(C)(CO)[C@@H](O)C(=O)NCCC(=O)NCCSSCCNC(=O)CCNC(=O)[C@H](O)C(C)(C)CO` [PCM-0216020]: the inhibition at 10 µM under setting [1] is -28.9%.

In the case of `CC(=O)O[C@H]1CC[C@H]2[C@@H]3CCc4cc(O)ccc4[C@H]3CC[C@]12C` [PCM-0216021], under setting [1], the inhibition at 10 µM is 3.1%.

With `CC(C)C(Br)C(=O)NC(N)=O` (centres unmarked) [PCM-0216023], for the setting “read-out: BTK inhibition (%)”, the inhibition at 10 µM turned out to be 12.4%.

Consider `Cc1c(C(C)C)c(=O)n(-c2ccccc2)n1C` [PCM-0216024], for which the inhibition at 10 µM under setting [1] was -11.7%.

For `CC(C)(C)c1nc(-c2ccc(NC(=O)Nc3cccc(C(F)(F)F)c3)c3ccccc23)c2c(N)nccn12` [PCM-0216026], the inhibition at 10 µM under setting [1] turned out to be 79.3%.

In the case of `CC(C)OC(=O)CCC/C=C\C[C@@H]1[C@@H](/C=C/C(F)(F)COc2ccccc2)[C@H](O)C[C@@H]1O` [PCM-0216028], under setting [1], the inhibition at 10 µM is -61.5%.

With `O=C(O)COc1ccc(Br)cc1/C=C1\SC(=S)N(Cc2cccnc2)C1=O` [PCM-0216029], the inhibition at 10 µM under setting [1] is 7.7%.

Take `CC(C)=CCC/C(C)=C/CC/C(C)=C/CC/C=C(\C)CC/C=C(\C)CCC=C(C)C` [PCM-0216030]: under setting [1], the inhibition at 10 µM is -9.7%.

As for `CCCCCCCCC(=O)O` [PCM-0216031], under setting [1], the inhibition at 10 µM is -8.6%.

Turning to `CC(C)=CCC/C(C)=C\CO` [PCM-0216032], under setting [1], the inhibition at 10 µM was determined as 3.1%.

`CC(C)CCC[C@@H](C)[C@H]1CC[C@H]2[C@@H]3CC[C@H]4C[C@@H](O)CC[C@]4(C)[C@H]3CC[C@]12C` [PCM-0216033]: the inhibition at 10 µM under setting [1] is -9.4%.

Regarding `Nc1ccc(/C=C/C(=O)NCc2cc3cc(-c4ccc(C(=O)N5CCC(F)(F)CC5)cc4)cc(-c4ccc(F)cc4)c3o2)cn1` [PCM-0216035], the inhibition at 10 µM under setting [1] was 31.7%.

As to `CCCCCCCCCCCCN1CCCCCC1=O` [PCM-0216037], the inhibition at 10 µM under setting [1] is -2.3%.

On to `CC[C@H](Nc1ncnc2nc[nH]c12)c1oc2ccccc2c(=O)c1-c1cccc(F)c1` [PCM-0216040], for which the inhibition at 10 µM under setting [1] was 8.5%.

Turning to `NC(=O)c1cnc(NCCc2ccc(O)c(Cl)c2)nc1NCc1ccccc1` [PCM-0216041], the inhibition at 10 µM under setting [1] came out at 47.1%.

For the molecule `CC1(C)Cc2c(sc(NC(=O)c3ccn[nH]3)c2C(N)=O)C(C)(C)O1` [PCM-0216042], the inhibition at 10 µM under setting [1] is 1.5%.

As for `C[N+](C)(C)CCOP(=O)([O-])OC[C@H](O)CO` [PCM-0216043], the inhibition at 10 µM under setting [1] was 1.7%.

For the molecule `CN(C)CCC=C1c2ccccc2C(C)(C)c2ccccc21` [PCM-0216044], under setting [1], the inhibition at 10 µM was -10.8%.

For `COc1ccc(CCNCC(O)COc2cccc(C)c2)cc1OC` (centres unmarked) [PCM-0216046], under setting [1], the inhibition at 10 µM is -4.6%.

In the case of `O=C(O)Cc1ccc2c(c1)C(=O)c1ccccc1CO2` [PCM-0216047], under setting [1], the inhibition at 10 µM is -5.5%.

Turning to `Oc1ccc(-c2c(-c3ccccc3)nn3c(C(F)(F)F)cc(C(F)(F)F)nc23)cc1` [PCM-0216048], the inhibition at 10 µM (read-out: BTK inhibition (%)) was found to be 27.8%.

`Cc1ncc(NC(=O)c2cccc(C(F)(F)F)c2)cc1-c1cnc(OC2CCOCC2)c(N2CCOCC2)c1` [PCM-0216049]: under setting [1], the inhibition at 10 µM is -13.1%.

In the case of `O=C(Oc1coc(CSc2ncccn2)cc1=O)c1ccc([N+](=O)[O-])cc1` [PCM-0216050], under setting [1], the inhibition at 10 µM was -3.9%.

As for `CC(C)=CCC/C(C)=C/CC/C(C)=C/CC/C(C)=C/CC1=C(C)C(=O)c2ccccc2C1=O` [PCM-0216051], the inhibition at 10 µM under setting [1] turned out to be 2.3%.

`CC(CCc1ccccc1)NCC(=O)c1ccc(O)c(C(N)=O)c1` (centres unmarked) [PCM-0216052]: the inhibition at 10 µM under setting [1] is -18.5%.

With `Cc1oc2nc3c(c(NC(=O)CN4CCCC4=O)c2c1C)CCCC3` [PCM-0216053], under setting [1], the inhibition at 10 µM was determined as 12.4%.

Consider `COc1ccc2cc(C(=O)O)ccc2c1` [PCM-0216054], for which, under setting [1], the inhibition at 10 µM is -9.3%.

Take `C[C@@]1(F)[C@H](O)[C@@H](CO)O[C@H]1n1ccc(=O)[nH]c1=O` [PCM-0216055]: the inhibition at 10 µM under setting [1] was -20%.

Regarding `COC(=O)N[C@H](C(=O)N1CCC[C@H]1C(=O)Nc1ccc([C@@H]2CC[C@@H](c3ccc(NC(=O)[C@@H]4CCCN4C(=O)[C@@H](NC(=O)OC)C(C)C)cc3)N2c2ccc(C(C)(C)C)cc2)cc1)C(C)C` [PCM-0216056], the inhibition at 10 µM under setting [1] came out at 18.5%.

(Values after publication PMC8041284, “Tunable Methacrylamides for Covalent Ligand Directed Release Chemistry” (Journal of the American Chemical Society, 2021).)
